Patent US10561702B2, “Method for the treatment of skin disorders using dipeptide diaminobutyroyl benzylamide diacetate” (DSM IP ASSETS B.V., priority 2015, dated 2020)
Values joined by “and” are separate entries in the source; they are usually repeats but may differ in a detail not shown here. Identical values can stand only once.

How the values were obtained:
[1] = system: human sebaceous glands; assay: Ex vivo assay with sebaceous glands (organ culture, total lipid quantification); assay type: cell-based; settings: day 6; for Total fat quantification, Average (1-12): average of 12 SG test samples, untreated 17.5
Source text: 2. Ex Vivo Assay with Sebaceous Glands (SG)
Organ culture of human sebaceous glands has been performed in order to verify the modulatory activity of H-(beta-Ala)-Pro-Dab-NH-benzyl on sebum secretion. A viability test has been performed in parallel. Human sebaceous glands from skin sample od labia minora have been used (donor). The epidermis of the full thickness sample has been carefully removed and the sebaceous glands have been micro-dissected.
The sebaceous glands have been pooled in groups of eight and cultured up to day 6. SGs are cultured in 24 well plate immersed in 500 μl of SGs medium (modified Williams'E medium). After 24 hours the culture medium has been changed and substituted with the medium containing the substance to be tested. The medium has been renewed at day 3 and 5 of culture. At day 6 the glands have been collected and used for the quantification of lipids and proteins. Briefly the SGs have been homogenized in isopropyl alcohol (IPOH) in order to extract lipids and let the protein undissolved. An aliquot of IPOH has been withdrawn to measure the lipids whereas the rest has been evaporated in a vacuum centrifuge. The remaining dry pellet has been minced again in presence of protein lysis buffer. The lipids dissolved in IPOH and the protein dissolved in the lysis buffer have been quantified by infrared spectroscopy (Millipore Direct Detect). The total lipid amount has been obtained by normalizing the quantified lipids upon the quantified proteins (i.e. mg of lipids/mg of proteins).

[2] = target: T1, DPP4 (Homo sapiens, UniProt P27487); assay: Dipeptidyl Peptidase 4 (DPP4) protease assay (DPP4 Drug Discovery Kit, fluorogenic substrate H-Gly-Pro-AMC); assay type: biochemical; settings: for DPP4 activity: % activity remaining
T1 construct: purchased Enzo Life Sciences
T1 sequence (P27487 whole entry): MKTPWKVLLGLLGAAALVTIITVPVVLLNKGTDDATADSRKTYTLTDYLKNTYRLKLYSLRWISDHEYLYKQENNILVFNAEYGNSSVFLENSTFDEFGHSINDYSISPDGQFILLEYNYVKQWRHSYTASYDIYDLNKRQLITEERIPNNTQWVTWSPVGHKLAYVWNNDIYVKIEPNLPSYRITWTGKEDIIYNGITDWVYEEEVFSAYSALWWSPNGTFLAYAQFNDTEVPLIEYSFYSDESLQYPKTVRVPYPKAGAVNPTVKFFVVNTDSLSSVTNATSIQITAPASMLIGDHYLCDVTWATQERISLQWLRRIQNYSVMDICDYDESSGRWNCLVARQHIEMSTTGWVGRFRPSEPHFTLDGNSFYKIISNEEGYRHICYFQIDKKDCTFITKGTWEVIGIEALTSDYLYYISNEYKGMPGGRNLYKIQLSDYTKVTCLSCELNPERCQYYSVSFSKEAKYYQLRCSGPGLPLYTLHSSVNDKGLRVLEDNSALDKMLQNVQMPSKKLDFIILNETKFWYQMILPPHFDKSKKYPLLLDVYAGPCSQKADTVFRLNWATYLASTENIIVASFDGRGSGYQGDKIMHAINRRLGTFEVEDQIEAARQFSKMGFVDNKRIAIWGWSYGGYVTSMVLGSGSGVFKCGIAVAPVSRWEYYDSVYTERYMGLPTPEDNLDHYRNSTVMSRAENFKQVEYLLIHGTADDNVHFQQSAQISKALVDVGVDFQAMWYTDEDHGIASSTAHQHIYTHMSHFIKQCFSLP
Protocol: 1. Dipeptiyl Peptidase 4 (DPP4) Protease Assay Method
The potential of H-(beta-Ala)-Pro-Dab-NH-benzyl [CAS 823202-99-9], respectively N-Pal-Gly-His-Lys [147732-56-7]/N-Pal-Gly-Gln-Pro-Arg [221227-05-0] (2:1) to inhibit DPP4 was tested using the DPP4 Drug Discovery Kit from Enzo Life Sciences. In brief: DPP4 is pre-incubated for 10 minutes with inhibitors and then added to a quenched fluorogenic substrate (H-Gly-Pro-AMC). Cleavage of the AMC-moiety from the c-terminus of the peptide substrate by DPP4 increases its fluorescence intensity at 460 nm. The AMC signal is then recorded using a fluorescence microplate reader at Ex/Em=380/460 every minute for a total time of 20 min. A “best fit” line is generated with the data points of the first 10-20 min and the slope calculated. The remaining activity in the presence of inhibitor was calculated as follows: % activity remaining (with inhibitor)=(slope of inhibitor-sample/slope of control-sample)*100.

COc1cc(CNC(=O)CCCC/C=C/C(C)C)ccc1O [Capsaicin]
Total fat quantification, Average (1-12) ([1]; 5 μM): 15.5 mg lipid/mg protein | Total fat quantification ([1]; 5 μM, single SG test samples 1-12): 15.8 mg lipid/mg protein and 15.7 mg lipid/mg protein and 15.5 mg lipid/mg protein and 15.6 mg lipid/mg protein and 15.4 mg lipid/mg protein and 15.3 mg lipid/mg protein and 15.1 mg lipid/mg protein

H-(beta-Ala)-Pro-Dab-NH-benzyl
DPP4 activity ([2]; 0.77 ppm / 1.56 μM): 74% | DPP4 activity ([2]; 1.55 ppm / 3.13 μM): 58% | DPP4 activity ([2]; 3.10 ppm / 6.25 μM): 40% | DPP4 activity ([2]; 6.19 ppm / 12.50 μM): 24% | DPP4 activity ([2]; 12.39 ppm / 25.00 μM): 14% | DPP4 activity ([2]; 24.78 ppm / 50.00 μM): 7% | DPP4 activity ([2]; 49.55 ppm / 100.00 μM): 4% | DPP4 activity ([2]; 99.10 ppm / 200.00 μM): 2% | Effect on DPP4 (in words) ([2]; summary of tables 1 and 2): capable to inhibit DPP4 | Total fat quantification, Average (1-12) ([1]; 10 μM): 14.2 mg lipid/mg protein
